Results: patent US11578055B2, “Triazacyclododecansulfonamide (“TCD”)-based protein secretion inhibitors” (KEZAR LIFE SCIENCES, priority 2018, dated 2023)
Where two headings read alike, the source gives them in different places.

What was measured:
[1] = system: multiple myeloma cell line U266B1; experiment: U266 Cell Viability Assay; assay type: cell-based, human; conditions: Homo sapiens, U-266, 48 hr
In short: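 U266B1 myeloma cells in RPMI 1640 with 10% FBS were treated with compound dilutions for 48 h at 37° C, 5% CO2. Viability was read as CellTiter-Glo luminescence. Data for structures drawn without stereochemistry refer to stereoisomer mixtures.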

[2] = system: multiple myeloma cell line NCl-H929; experiment: H929 Cell Viability Assay; assay type: cell-based, human; conditions: Homo sapiens, NCI-H929, 48 h
In short: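 NCI-H929 myeloma cells in RPMI 1640 with 10% FBS were treated with compound dilutions for 48 h at 37 °C, and viability was then read by CellTiter-Glo luminescence. Compounds drawn without stereochemistry were tested as stereoisomer mixtures.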

[3] = In Vitro Microsome Stability Assay (monkey); assay type: in vitro ADME
In short: (§1)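 Test article, added from a 0.25 mM DMSO stock, was incubated with liver microsomes (20 mg/mL stock) in 0.1 M potassium phosphate at 37° C, with the reaction started by NADPH. Samples were quenched with acetonitrile containing internal standard at 0 and 30 min and analysed by LC-MS/MS. Values are % remaining at 30 min versus 0 min, using IS-normalised AUC ratios.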

[4] = system: PD1 signal sequence plus 10 amino acids fused to Gaussia Luciferase (PD1-ss+10aa/Gaussia Luciferase); experiment: Dox Induced PD1-ss-Gluc Assay; assay type: cell-based; conditions: 24 hr, read-out: 24 hr Dox Inducible PD1ssGluc 293FRT/TO: Mean IC50
In short: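 Stable Flp-In 293 T-REx line expressing the fusion under tetracycline-inducible control, plated the day before assay. Compound dilutions added with doxycycline and incubated at 37 °C, 5% CO2; unspecified stereocentres mean data refer to stereoisomer mixtures.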

[5] = system: full length TNFα (amino acids 1-233) fused to Gaussia Luciferase; experiment: Dox Induced TNFα-FL-Gluc Assay; assay type: cell-based; conditions: 24 hr, read-out: 24 hr Dox Inducible TNFaFLGluc 293FRT/TO: Mean IC50
In short: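 Stable Flp-In 293 T-REx line expressing doxycycline-inducible full-length TNFα fused to Gaussia luciferase; cells plated the day before, then treated with compound dilutions in doxycycline-containing medium at 37° C, 5% CO2. Unspecified stereocentres mean stereoisomer mixtures were tested.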

[6] = In Vitro Microsome Stability Assay (mouse); assay type: in vitro ADME
In short: as §1

[7] = In Vitro Microsome Stability Assay (rat); assay type: in vitro ADME
In short: as §1

[8] = In Vitro Microsome Stability Assay (human); assay type: in vitro ADME
In short: as §1

[9] = U266, read-out: 48 hr U266 Viability Celltiter-Glo: Mean EC50
[10] = H929, read-out: 48 hr H929 Viability Celltiter-Glo: Mean EC50
[11] = monkey liver microsomes, 30 min w/ NADPH
[12] = mouse liver microsomes, 30 min w/ NADPH
[13] = rat liver microsomes, 30 min w/ NADPH
[14] = human liver microsomes, 30 min w/ NADPH

SMILES | EC50 [1, 9] [µM] | EC50 [2, 10] [µM] | Liver Microsome Stability-% Left after 30 min w/ NADPH (%) Monkey ([3]; monkey, 30 min, NADPH) [%] | IC50 ([4]; 293FRT/TO) [µM] | IC50 ([5]; 293FRT/TO) [µM] | Liver Microsome Stability-% Left after 30 min w/ NADPH (%) Mouse ([6]; mouse, 30 min, NADPH) [%] | Liver Microsome Stability-% Left after 30 min w/ NADPH (%) Rat ([7]; rat, 30 min, NADPH) [%] | Liver Microsome Stability-% Left after 30 min w/ NADPH (%) Human ([8]; human, 30 min, NADPH) [%] | EC50 ([1]; U266, Celltiter-Glo) [µM] | EC50 ([2]; H929, Celltiter-Glo) [µM] | Liver Microsome Stability-% Left after 30 min w/ NADPH (%) Monkey [3, 11] [%] | IC50 ([4]; Dox inducible, 293FRT/TO cells) [µM] | IC50 ([5]; Dox inducible, 293FRT/TO cells) [µM] | Liver Microsome Stability-% Left after 30 min w/ NADPH (%) Mouse [6, 12] [%] | Liver Microsome Stability-% Left after 30 min w/ NADPH (%) Rat [7, 13] [%] | Liver Microsome Stability-% Left after 30 min w/ NADPH (%) Human [8, 14] [%]
C=C1CN(S(=O)(=O)c2ccc(N(C)C)cc2)CCCN(CC2CCCCC2)CCCN(S(=O)(=O)N2CCN(c3cccc(Cl)c3)CC2)C1 [A84, 4-[(5-{[4-(3-chlorophenyl)piperazin-1-yl]sulfonyl}-9-(cyclohexylmethyl)-3-methylidene-1,5,9-triazacyclododecan-1-yl)sulfonyl]-N,N-dimethylaniline] | > 25 | > 25 | 65.8 | 0.176 | > 25 | 68.3 | 67.3 | 60.6 | – | – | – | – | – | – | – | –
CN(C)c1ccc(S(=O)(=O)N2CCCN(CC3CCCCC3)CCCN(S(=O)(=O)N3CCC(C)(C)CC3)CC3(CC3)C2)cc1 [A26, 4-{[9-(cyclohexylmethyl)-13-[(4,4-dimethylpiperidin-1-yl)sulfonyl]-5,9,13-thazaspiro[2.11]tetradecan-5-yl]sulfonyl}-N,N-dimethylaniline] | > 25 | 16.1 | 0.13 | 0.224 | > 25 | 3.4 | 1.84 | 6.65 | – | – | – | – | – | – | – | –
C=C1CN(S(=O)(=O)c2ccc(N(C)C)cc2)CCCN(CC2CCCCC2)CCCN(S(=O)(=O)N2CCN(c3ccc(Cl)cc3)CC2)C1 [A85, 4-[(5-{[4-(4-chlorophenyl)piperazin-1-yl]sulfonyl}-9-(cyclohexylmethyl)-3-methylidene-1,5,9-triazacyclododecan-1-yl)sulfonyl]-N,N-dimethylaniline] | > 25 | > 25 | 42.9 | 0.0875 | > 25 | 52.2 | 64.9 | 25.6 | – | – | – | – | – | – | – | –
C=C1CN(S(=O)(=O)c2ccc(N(C)C)cc2)CCCN(CC2CCCCC2)CCCN(S(=O)(=O)N2CCC(OC(C)C)CC2)C1 [A66, 4-{[9-(cyclohexylmethyl)-3-methylidene-5-{[4-(propan-2-yloxy)piperidin-1-yl]sulfonyl}-1,5,9-triazacyclododecan-1-yl]sulfonyl}-N,N-dimethylaniline] | > 25 | 9.21 | 0.35 | 0.188 | 3.5 | 0.02 | 0.39 | 0.13 | – | – | – | – | – | – | – | –
C=C1CN(S(=O)(=O)c2ccc(N(C)C)cc2)CCCN(CC2CCCCC2)CCCN(S(=O)(=O)N2CCC(c3ccccc3Cl)CC2)C1 [A57, 4-[(5-{[4-(2-chlorophenyl)piperidin-1-yl]sulfonyl}-9-(cyclohexylmethyl)-3-methylidene-1,5,9-triazacyclododecan-1-yl)sulfonyl]-N,N-dimethylaniline] | > 25 | > 25 | 28.5 | 0.0734 | 7.81 | 60.2 | 84 | 31.9 | – | – | – | – | – | – | – | –
C=C1CN(S(=O)(=O)c2ccc(N(C)C)cc2)C(C)CCN(CC2CCCCC2)CCCN(S(=O)(=O)N2CCC(c3ccccc3)CC2)C1 (stereo not shown) [B19, 4-{[5-(cyclohexylmethyl)-2-methyl-11-methylidene-9-[(4-phenylpiperidin-1-yl)sulfonyl]-1,5,9-triazacyclododecan-1-yl]sulfonyl}-N,N-dimethylaniline] | – | – | – | – | – | – | – | – | > 25 | > 25 | 0.98 | 0.221 | 15.4 | 13.5 | 15.7 | 9.46
CN(C)c1ccc(S(=O)(=O)N2CCCN(CC3CCCCC3)CCCN(S(=O)(=O)N3CCC(c4ccccc4)CC3)CCC2)cc1 [A42, 4-{[5-(cyclohexylmethyl)-9-[(4-phenylpiperidin-1-yl)sulfonyl]-1,5,9-triazacyclododecan-1-yl]sulfonyl}-N,N-dimethylaniline] | > 25 | > 25 | 0.81 | 0.696 | > 25 | 0.79 | 7.69 | 2.65 | – | – | – | – | – | – | – | –
CN(C)c1ccc(S(=O)(=O)N2CCCN(CC3CCCCC3)CCCN(S(=O)(=O)N3CCCCC3)CC2)cc1 [B3, 4-{[8-(cyclohexylmethyl)-4-(piperidine-1-sulfonyl)-1,4,8-triazacycloundecan-1-yl]sulfonyl}-N,N-dimethylaniline] | – | – | – | – | – | – | – | – | 12.6 | 9.44 | 0.08 | 7.38 | > 25 | 0.15 | 0.1 | 0.26
C=C1CN(S(=O)(=O)c2ccc(N(C)C)cc2)CCCN(CC2CCCCC2)CCCN(S(=O)(=O)N2CCC(C3CCCC3)CC2)C1 [A64, 4-{[9-(cyclohexylmethyl)-5-[(4-cyclopentylpiperidin-1-yl)sulfonyl]-3-methylidene-1,5,9-triazacyclododecan-1-yl]sulfonyl}-N,N-dimethylaniline] | > 25 | 6.4 | 48 | 0.075 | 3.29 | 53.1 | 63.1 | 53.3 | – | – | – | – | – | – | – | –
C=C1CN(S(=O)(=O)c2ccc(N(C)C)cc2)CCCN(CC2CCCCC2)CCCN(S(=O)(=O)N2CC=C(c3ccccc3Cl)CC2)C1 [A73, 4-[(5-{[4-(2-chlorophenyl)-1,2,3,6-tetrahydropyridin-1-yl]sulfonyl}-9-(cyclohexylmethyl)-3-methylidene-1,5,9-triazacyclododecan-1-yl)sulfonyl]-N,N-dimethylaniline] | > 25 | 3.47 | 25.4 | 0.0373 | 1.86 | 16.3 | 71.5 | 18.2 | – | – | – | – | – | – | – | –
C=C1CN(S(=O)(=O)c2ccc(N(C)C)cc2)CCCN(CC2CCCCC2)CCCN(S(=O)(=O)N2CCC(n3cccn3)CC2)C1 [A79, 4-{[9-(cyclohexylmethyl)-3-methylidene-5-{[4-(1H-pyrazol-1-yl)piperidin-1-yl]sulfonyl}-1,5,9-triazacyclododecan-1-yl]sulfonyl}-N,N-dimethylaniline] | > 25 | > 25 | 0.06 | 0.408 | > 25 | 10.6 | 0.1 | 0.16 | – | – | – | – | – | – | – | –
